Measured values reported in ChEMBL document CHEMBL1153565, “Physicochemical properties and membrane interactions of anti-apoptotic derivatives 2-(4-fluorophenyl)-3-(pyridin-4-yl)imidazo[1,2-a]pyridine depending on the hydroxyalkylamino side chain length and conformation: an NMR and ESR study” (Eur J Med Chem, 2009).

What was measured:
[1] = Solubility of compound in water; type: physicochemical; conditions: buffer
THP-1 = experiment: Membrane penetration of compound in human THP1 cells assessed as membrane binding; type: ADME, cell-based
[2] = Partition coefficient, log P of the compound; type: physicochemical; conditions: octanol/water

Row | solubility [1] | Activity (THP-1) | logP [2] | Structure (SMILES)
1 | Insoluble | Not Active | 2.3 | OCCCCNc1ccc2nc(-c3ccc(F)cc3)c(-c3ccncc3)n2c1
2 | Insoluble | Not Active | 1.75 | OCCNc1ccc2nc(-c3ccc(F)cc3)c(-c3ccncc3)n2c1
3 | Soluble | Active | 3.2 | OCCCCCCNc1ccc2nc(-c3ccc(F)cc3)c(-c3ccncc3)n2c1
